The target in test [1] is T1, human RORγt ligand binding domain (RORγt LBD) (Homo sapiens, UniProt P51449).
T1 construct: His-tag (N); TurboTEV protease cleavage site (ENLYFQG) (N); made in house; host or cells: E. coli (pHIS1, a modified pET expression vector)
T1 sequence (P51449 with tags, fused parts or gaps): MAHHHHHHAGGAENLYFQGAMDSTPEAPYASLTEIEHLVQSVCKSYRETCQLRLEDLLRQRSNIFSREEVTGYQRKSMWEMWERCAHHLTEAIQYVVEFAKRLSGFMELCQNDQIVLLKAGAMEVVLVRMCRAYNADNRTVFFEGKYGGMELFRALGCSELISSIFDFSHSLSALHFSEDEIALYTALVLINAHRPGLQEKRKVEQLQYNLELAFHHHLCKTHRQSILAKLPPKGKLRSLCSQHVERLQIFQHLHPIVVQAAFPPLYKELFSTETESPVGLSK
Description: RORγt ThermoFluor assay. Conditions: estimated from thermal shift concentration response. A digest of the protocol:
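Thermal shift of RORγt LBD (0.065 mg/mL) with 60 μM 1,8-ANS in 100 mM Hepes pH 7.0, NaCl, GSH, 0.002% Tween-20, heated at 1° C/min. ANS fluorescence tracked versus temperature; ΔTm relative to DMSO wells. Compounds serially diluted 1:2 from 10 mM DMSO stock.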

For a further test, the target named is T2, full-length human RORγt (Homo sapiens, UniProt P51449).
T2 construct: expressed in transfected cells; host or cells: HEK293T, transiently transfected with pCMV-BD-ROR
T2 sequence (P51449 1-497 isoform P51449-2): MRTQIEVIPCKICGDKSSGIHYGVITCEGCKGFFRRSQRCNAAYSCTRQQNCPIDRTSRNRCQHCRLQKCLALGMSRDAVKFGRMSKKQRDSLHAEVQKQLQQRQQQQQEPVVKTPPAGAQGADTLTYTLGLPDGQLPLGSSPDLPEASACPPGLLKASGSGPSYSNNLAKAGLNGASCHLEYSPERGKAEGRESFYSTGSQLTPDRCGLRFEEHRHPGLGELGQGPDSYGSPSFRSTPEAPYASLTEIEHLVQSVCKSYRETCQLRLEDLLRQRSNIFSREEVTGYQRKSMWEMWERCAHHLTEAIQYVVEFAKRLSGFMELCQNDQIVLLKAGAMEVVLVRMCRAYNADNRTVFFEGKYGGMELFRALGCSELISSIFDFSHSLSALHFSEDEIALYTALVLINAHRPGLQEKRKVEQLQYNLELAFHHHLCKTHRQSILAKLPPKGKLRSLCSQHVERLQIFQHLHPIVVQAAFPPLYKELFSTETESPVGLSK
Description: RORγt (full-length human) Reporter Assay, Conditions A. In kind it is cell-based. Conditions: for IC50: HEK293T cells, GAL4-DBD-RORγt, luciferase, read-out: RORγt (FL) Reporter Assay A, IC50; for inhibition at 6 µM: read-out: RORγt (FL) Reporter Assay A, % inhibition @ 6 μM, 6 μM compound; for inhibition at 2 µM: read-out: RORγt (FL) Reporter Assay A, % inhibition (* at 2 μM), 2 μM compound concentration (footnote *). Summed up:
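Reporter cells lysed after 16–20 h compound exposure; firefly and Renilla luciferase luminescence measured. Firefly signal normalised to DMSO and saturating reference compound, then to Renilla; IC50 from normalised data versus concentration, percent inhibition relative to DMSO.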

For seven compounds, Kd, IC50 and inhibition results are on record in patent US9845319B2, “Amide substituted thiazoles as modulators of RORyt” (Janssen Pharmaceutica NV, priority 2014, dated 2017).

As usually defined, the Kd is the equilibrium constant for the complex coming apart. In general, IC50 refers to the concentration at which inhibition is half-maximal. Broadly, the inhibition is the change of the read-out against control, counted positive when it falls.

The structures appear in SMILES notation.

In the case of `C[C@H](NS(=O)(=O)c1ccc(-c2sc(-c3noc(C(C)(C)O)n3)nc2C(=O)N2CCC(F)CC2)c(C(F)F)c1F)C(F)(F)F` [Example 11/1, (S)-3-(Difluoromethyl)-2-fluoro-4-(4-(4-fluoropiperidine-1-carbonyl)-2-(5-(2-hydroxypropan-2-yl)-1,2,4-oxadiazol-3-yl)thiazol-5-yl)-N-(1,1,1-trifluoropropan-2-yl)benzenesulfonamide], in test [1], the dissociation constant (Kd) was 31 nM. At full-length human RORγt, the IC50 amounted to 120 nM and the inhibition at 6 µM is 103%.
Taken in the same sequence, the figures for `CCN(C(=O)c1nc(-c2nnc(C(C)(C)O)o2)sc1-c1ccc(S(=O)(=O)N[C@@H](C)C(F)(F)F)c(Cl)c1Cl)C(C)C` [Example 6/7, (S)-5-(2,3-Dichloro-4-(N-(1,1,1-trifluoropropan-2-yl)sulfamoyl)phenyl)-N-ethyl-2-(5-(2-hydroxypropan-2-yl)-1,3,4-oxadiazol-2-yl)-N-isopropylthiazole-4-carboxamide] were 1.7 nM, 38 nM and 113%.
For `CC[C@H](NS(=O)(=O)c1ccc(-c2sc(-c3nnc(C(C)(C)O)o3)nc2C(=O)N(CC)CC)c(Cl)c1F)C(F)(F)F` [Example 6/20, (S)-5-(2-Chloro-3-fluoro-4-(N-(1,1,1-trifluorobutan-2-yl)sulfamoyl)phenyl)-N,N-diethyl-2-(5-(2-hydroxypropan-2-yl)-1,3,4-oxadiazol-2-yl)thiazole-4-carboxamide], in test [1], the Kd was 11 nM. For the same compound, on full-length human RORγt, the 50% inhibitory concentration (IC50) was found to be 43 nM and the inhibition at 2 µM amounted to 102%.
On to `CCN(CC)C(=O)c1nc(-c2nnc(CC(C)(C)O)o2)sc1-c1ccc(S(=O)(=O)N[C@@H](C)C(F)(F)F)c(Cl)c1Cl` [Example 3/3, (S)-5-(2,3-Dichloro-4-(N-(1,1,1-trifluoropropan-2-yl)sulfamoyl)phenyl)-N,N-diethyl-2-(5-(2-hydroxy-2-methylpropyl)-1,3,4-oxadiazol-2-yl)thiazole-4-carboxamide], for which the Kd in test [1] was 10 nM. Further, at full-length human RORγt, the IC50 was found to be 27 nM and the inhibition at 6 µM was found to be 107%.
Taken in the same sequence, the figures for `CC(C)(O)c1nnc(-c2nc(C(=O)N3CCC(F)(F)CC3)c(-c3ccc(S(=O)(=O)NC(C)(C)C(F)(F)F)c(F)c3Cl)s2)o1` [Example 6/19, 3-Chloro-4-(4-(4,4-difluoropiperidine-1-carbonyl)-2-(5-(2-hydroxypropan-2-yl)-1,3,4-oxadiazol-2-yl)thiazol-5-yl)-2-fluoro-N-(1,1,1-trifluoro-2-methylpropan-2-yl)benzenesulfonamide] were 6.1 nM, 76 nM and 107%.
For `C[C@H]1CCCN1C(=O)c1nc(-c2nnc(C(C)(C)O)o2)sc1-c1ccc(OCC(O)(C(F)(F)F)C(F)(F)F)cc1C(F)(F)F` [Example 6/24, (S)-(2-(5-(2-Hydroxypropan-2-yl)-1,3,4-oxadiazol-2-yl)-5-(4-(3,3,3-trifluoro-2-hydroxy-2-(trifluoromethyl)propoxy)-2-(trifluoromethyl)phenyl)thiazol-4-yl)(2-methylpyrrolidin-1-yl)methanone], the Kd in test [1] was 11 nM. On full-length human RORγt, the IC50 was 130 nM and the inhibition at 2 µM was determined as 96%.
For `C[C@H](NS(=O)(=O)c1ccc(-c2sc(-c3cc(C(C)(C)O)on3)nc2C(=O)N2CCC(F)(F)CC2)c(Cl)c1Cl)C(F)(F)F` [Example 13, (S)-2,3-Dichloro-4-(4-(4,4-difluoropiperidine-1-carbonyl)-2-(5-(2-hydroxypropan-2-yl)isoxazol-3-yl)thiazol-5-yl)-N-(1,1,1-trifluoropropan-2-yl)benzenesulfonamide], in that order: 1.3 nM, 12 nM and 105%.
